Results: patent publication US8846951B2 (AbbVie Inc., priority 2009, dated 2014)
Like-named read-outs stand apart in the source and are kept apart here.

Experiments:
5HT2C receptors = target: T1, 5HT2C receptors (Homo sapiens, UniProt P28335); assay: Human 5-HT2C functional high throughput screening assay in CHO-K1 cells (calcium flux); type: cell-based; set-up: expressed in transfected cells; host or cells: CHO-K1 cells; conditions: for Emax: CHO-K1, 5-HT2C, maximum functional response as percentage relative to the effect of serotonin; for EC50: CHO-K1 cells, calcium flux
T1 sequence (P28335 33-458): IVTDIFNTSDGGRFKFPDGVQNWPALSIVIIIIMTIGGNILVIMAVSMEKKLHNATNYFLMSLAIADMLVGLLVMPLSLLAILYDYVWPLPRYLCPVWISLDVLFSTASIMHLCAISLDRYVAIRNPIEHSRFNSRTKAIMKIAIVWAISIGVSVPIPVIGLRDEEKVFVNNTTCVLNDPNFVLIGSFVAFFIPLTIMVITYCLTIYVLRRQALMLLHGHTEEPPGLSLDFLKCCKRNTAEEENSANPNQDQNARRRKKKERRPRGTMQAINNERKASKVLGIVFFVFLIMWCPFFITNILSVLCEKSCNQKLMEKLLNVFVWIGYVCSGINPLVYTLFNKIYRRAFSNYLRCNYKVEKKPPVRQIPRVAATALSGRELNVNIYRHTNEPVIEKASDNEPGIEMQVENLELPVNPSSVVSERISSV
Outline: (§1)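 Agonism was measured as FLIPR fluorescence increase (480/530 nm, 25° C) with Ca4 dye and 2.5 mM probenecid, in serum-starved CHO-K1 lines overexpressing human 5-HT2C or 5-HT2B. Six-point 1:10 dilutions from 10 μM (0.2% DMSO final) were fitted by 4-parameter logistics. Responses were normalised to serotonin to give EC50 and % Emax.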

5HT2B receptors = target: T2, 5HT2B receptors (Homo sapiens, UniProt P41595); assay: Human 5-HT2B functional high throughput screening assay in CHO-K1 cells (calcium flux); type: cell-based; conditions: for EC50: CHO-K1 cells, calcium flux
T2 construct: expressed in transfected cells; host or cells: CHO-K1 cells
Outline: as §1

[1] = 5-HT2C agonist activity, read-out: EC50
[2] = 5-HT2B agonist activity, read-out: EC50
[3] = 5-HT2B, maximum functional response as percentage relative to the effect of serotonin

T2 sequence (P41595 whole entry): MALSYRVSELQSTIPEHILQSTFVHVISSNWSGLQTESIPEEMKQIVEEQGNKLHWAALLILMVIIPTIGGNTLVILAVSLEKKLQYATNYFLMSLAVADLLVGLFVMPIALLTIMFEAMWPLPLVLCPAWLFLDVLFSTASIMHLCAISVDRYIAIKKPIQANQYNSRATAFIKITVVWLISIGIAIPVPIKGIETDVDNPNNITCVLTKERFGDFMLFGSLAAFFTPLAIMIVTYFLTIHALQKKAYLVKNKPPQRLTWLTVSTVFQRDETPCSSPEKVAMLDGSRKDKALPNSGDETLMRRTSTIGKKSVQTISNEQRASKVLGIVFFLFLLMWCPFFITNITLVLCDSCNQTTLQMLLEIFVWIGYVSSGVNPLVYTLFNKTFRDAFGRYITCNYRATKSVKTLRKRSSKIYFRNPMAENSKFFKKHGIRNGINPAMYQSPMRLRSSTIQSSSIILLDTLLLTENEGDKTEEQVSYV

Compound	EC50 (5HT2C receptors; [1]) [nM]	Emax (5HT2C receptors; read-out: Emax) [%]	EC50 (5HT2B receptors; [2]) [nM]	Emax (5HT2B receptors; [3])	Emax (5HT2C receptors) [%]	EC50 (5HT2C receptors; EC50, 5-HT2C agonist activity) [nM]	Emax (5HT2B receptors; CHO-K1) [%]	EC50 (5HT2B receptors; EC50, 5-HT2B agonist activity) [nM]
Fc1ccc(F)c2c1OCC[C@H]1CNC[C@@H]21 (relative stereo) [Example 288, Cis-7,10-difluoro-2,3,3a,4,5,10b-hexahydro-1H-[1]benzoxepino[4,5-c]pyrrole]	–	–	–	–	90	40	50	700
Fc1ccc(F)c2c1OCC[C@H]1CNC[C@H]21 (relative stereo) [Example 289, Trans-7,10-difluoro-2,3,3a,4,5,10b-hexahydro-1H-[1]benzoxepino[4,5-c]pyrrole]	–	–	–	–	90	7	95	100
Cc1ccc2c(c1)[C@H]1CNC[C@@H]1CCO2 (relative stereo) [Example 290, Trans-9-methyl-2,3,3a,4,5,10b-hexahydro-1H-[1]benzoxepino[4,5-c]pyrrole]	–	–	–	–	80	100	35	20
Cc1cccc2c1OCC[C@H]1CNC[C@H]21 (relative stereo) [Example 291, Trans-7-methyl-2,3,3a,4,5,10b-hexahydro-1H-[1]benzoxepino[4,5-c]pyrrole]	–	–	–	–	95	0.4	60	10
Clc1cccc2c1OCC[C@H]1CNC[C@@H]21 (relative stereo) [Example 295, Cis-7-chloro-2,3,3a,4,5,10b-hexahydro-1H-[1]benzoxepino[4,5-c]pyrrole]	–	–	–	–	100	10	40	60
CC(=O)c1ccc(-c2ccc3c(c2)C(=O)NC[C@@H]2CNC[C@@H]32)s1 (relative stereo) [Example 296, Trans-8-(5-acetyl-2-thienyl)-2,3,3a,4,5,10b-hexahydropyrrolo[3,4-d][2]benzazepin-6(1H)-one]	1	100	> 10000	inactive	–	–	–	–
CC(C)CNc1ccc2c(c1)C(=O)NC[C@@H]1CN(C)C[C@@H]21 (relative stereo) [Example 297, Trans-8-(isobutylamino)-2-methyl-2,3,3a,4,5,10b-hexahydropyrrolo[3,4-d][2]benzazepin-6(1H)-one]	–	–	–	inactive	80	100	–	> 10000
CN1C[C@H]2CNC(=O)c3cc(N4CCCCC4)ccc3[C@@H]2C1 (relative stereo) [Example 298, Trans-2-methyl-8-(piperidin-1-yl)-2,3,3a,4,5,10b-hexahydropyrrolo[3,4-d][2]benzazepin-6(1H)-one]	400	80	> 10000	inactive	–	–	–	–
CN1C[C@H]2CNC(=O)c3cc(/C=C/C4CC4)ccc3[C@@H]2C1 (relative stereo) [Example 305, Trans-8-[(E)-2-cyclopropylvinyl]-2-methyl-2,3,3a,4,5,10b-hexahydropyrrolo[3,4-d][2]benzazepin-6(1H)-one]	–	–	–	inactive	90	6	–	> 10000
CN1C[C@H]2CNC(=O)c3cc(-c4ccc5c(c4)CCO5)ccc3[C@@H]2C1 (relative stereo) [Example 321, Trans-8-(2,3-dihydro-1-benzofuran-5-yl)-2-methyl-2,3,3a,4,5,10b-hexahydropyrrolo[3,4-d][2]benzazepin-6(1H)-one]	3	90	> 10000	inactive	–	–	–	–
CN1C[C@H]2CNC(=O)c3cc(-c4cc(F)c(F)c(F)c4)ccc3[C@@H]2C1 (relative stereo) [Example 322, Trans-2-methyl-8-(3,4,5-trifluorophenyl)-2,3,3a,4,5,10b-hexahydropyrrolo[3,4-d][2]benzazepin-6(1H)-one]	20	80	> 10000	inactive	–	–	–	–

Continued, in another order:

EC50 (5HT2C receptors; [1]) [nM]	Emax (5HT2C receptors; read-out: Emax) [%]	EC50 (5HT2B receptors; [2]) [nM]	Emax (5HT2B receptors; [3])	Compound	Emax (5HT2C receptors) [%]	EC50 (5HT2C receptors; EC50, 5-HT2C agonist activity) [nM]	Emax (5HT2B receptors; CHO-K1) [%]	EC50 (5HT2B receptors; EC50, 5-HT2B agonist activity) [nM]
10	100	> 10000	inactive	COc1cc(F)ccc1-c1ccc2c(c1)C(=O)NC[C@@H]1CN(C)C[C@@H]21 (relative stereo) [Example 299, Trans-8-(4-fluoro-2-methoxyphenyl)-2-methyl-2,3,3a,4,5,10b-hexahydropyrrolo[3,4-d][2]benzazepin-6(1H)-one]	–	–	–	–
50	100	> 10000	inactive	COc1ccc(F)cc1-c1ccc2c(c1)C(=O)NC[C@@H]1CN(C)C[C@@H]21 (relative stereo) [Example 300, Trans-8-(5-fluoro-2-methoxyphenyl)-2-methyl-2,3,3a,4,5,10b-hexahydropyrrolo[3,4-d][2]benzazepin-6(1H)-one]	–	–	–	–
30	105	> 10000	inactive	COc1ccc(C(C)C)cc1-c1ccc2c(c1)C(=O)NC[C@@H]1CN(C)C[C@@H]21 (relative stereo) [Example 301, Trans-8-(5-isopropyl-2-methoxyphenyl)-2-methyl-2,3,3a,4,5,10b-hexahydropyrrolo[3,4-d][2]benzazepin-6(1H)-one]	–	–	–	–
70	95	> 10000	inactive	COc1cc(C)ccc1-c1ccc2c(c1)C(=O)NC[C@@H]1CN(C)C[C@@H]21 (relative stereo) [Example 302, Trans-8-(2-methoxy-4-methylphenyl)-2-methyl-2,3,3a,4,5,10b-hexahydropyrrolo[3,4-d][2]benzazepin-6(1H)-one]	–	–	–	–
40	100	> 10000	inactive	COc1ccc(-c2ccc3c(c2)C(=O)NC[C@@H]2CN(C)C[C@@H]32)c(OC)c1 (relative stereo) [Example 303, Trans-8-(2,4-dimethoxyphenyl)-2-methyl-2,3,3a,4,5,10b-hexahydropyrrolo[3,4-d][2]benzazepin-6(1H)-one]	–	–	–	–
3	95	> 10000	inactive	Cc1cc(-c2ccc3c(c2)C(=O)NC[C@@H]2CN(C)C[C@@H]32)ccc1F (relative stereo) [Example 314, Trans-8-(4-fluoro-3-methylphenyl)-2-methyl-2,3,3a,4,5,10b-hexahydropyrrolo[3,4-d][2]benzazepin-6(1H)-one]	–	–	–	–
30	90	> 10000	inactive	COc1ccc(-c2ccc3c(c2)C(=O)NC[C@@H]2CN(C)C[C@@H]32)cc1C (relative stereo) [Example 315, Trans-8-(4-methoxy-3-methylphenyl)-2-methyl-2,3,3a,4,5,10b-hexahydropyrrolo[3,4-d][2]benzazepin-6(1H)-one]	–	–	–	–
7	80	> 10000	inactive	COc1ccc(-c2ccc3c(c2)C(=O)NC[C@@H]2CN(C)C[C@@H]32)cc1F (relative stereo) [Example 316, Trans-8-(3-fluoro-4-methoxyphenyl)-2-methyl-2,3,3a,4,5,10b-hexahydropyrrolo[3,4-d][2]benzazepin-6(1H)-one]	–	–	–	–
70	75	> 10000	inactive	COc1c(C)cc(-c2ccc3c(c2)C(=O)NC[C@@H]2CN(C)C[C@@H]32)cc1C (relative stereo) [Example 317, Trans-8-(4-methoxy-3,5-dimethylphenyl)-2-methyl-2,3,3a,4,5,10b-hexahydropyrrolo[3,4-d][2]benzazepin-6(1H)-one]	–	–	–	–
7	90	> 10000	inactive	COc1cc(-c2ccc3c(c2)C(=O)NC[C@@H]2CN(C)C[C@@H]32)ccc1F (relative stereo) [Example 320, Trans-8-(4-fluoro-3-methoxyphenyl)-2-methyl-2,3,3a,4,5,10b-hexahydropyrrolo[3,4-d][2]benzazepin-6(1H)-one]	–	–	–	–
9	90	> 10000	inactive	COc1ccc(F)c(-c2ccc3c(c2)C(=O)NC[C@@H]2CN(C)C[C@@H]32)c1 (relative stereo) [Example 323, Trans-8-(2-fluoro-5-methoxyphenyl)-2-methyl-2,3,3a,4,5,10b-hexahydropyrrolo[3,4-d][2]benzazepin-6(1H)-one]	–	–	–	–
3	85	> 10000	inactive	CN1C[C@H]2CNC(=O)c3cc(-c4ccc5c(c4)OCC5)ccc3[C@@H]2C1 (relative stereo) [Example 324, Trans-8-(2,3-dihydro-1-benzofuran-6-yl)-2-methyl-2,3,3a,4,5,10b-hexahydropyrrolo[3,4-d][2]benzazepin-6(1H)-one]	–	–	–	–
